From PubChem BioAssay AID504520 (The Scripps Research Institute Molecular Screening Center, 2011)
Calls of active or inactive are those of the source. No rule for the calls is given here.

Legend:
Assay in all cases: LYPLA1 inhibition and serine hydrolase selectivity, late-stage follow-up, fluorescence, gel-based ABPP, mouse proteome (AID 504520);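 also: soluble proteome from BW5147 murine T cells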
Conditions in all cases: FP-rhodamine fluorescence, stronger effect = higher value
LYPLA1 = tested on: LYPLA1
[1] = molecular target: Platelet-activating factor acetylhydrolase 2, cytoplasmic (Mus musculus) (UniProt Q8VDG7)
Platelet-activating factor acetylhydrolase 2, cytoplasmic (Mus musculus), sequence (Q8VDG7 whole entry, looked up): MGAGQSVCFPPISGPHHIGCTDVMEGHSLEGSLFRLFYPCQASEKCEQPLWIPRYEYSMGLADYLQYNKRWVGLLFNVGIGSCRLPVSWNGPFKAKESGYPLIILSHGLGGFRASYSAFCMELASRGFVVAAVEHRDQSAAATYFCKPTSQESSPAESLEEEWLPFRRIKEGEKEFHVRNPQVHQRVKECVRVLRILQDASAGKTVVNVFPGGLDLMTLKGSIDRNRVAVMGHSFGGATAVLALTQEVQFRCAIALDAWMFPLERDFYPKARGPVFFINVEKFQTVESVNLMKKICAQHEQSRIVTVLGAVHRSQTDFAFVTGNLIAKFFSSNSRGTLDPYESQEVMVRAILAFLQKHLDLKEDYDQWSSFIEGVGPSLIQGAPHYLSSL

LYPLA2 = tested on: LYPLA2
ABHD11 = tested on: ABHD11
ESD = tested on: ESD

inhibition (LYPLA1; at 0.75 µM) | inhibition (LYPLA1; inhibition, at 0.03 µM) [%] | inhibition (LYPLA1; inhibition, at 0.15 µM) [%] | inhibition ([1]; PAFAH2, at 0.75 µM) | inhibition ([1]; PAFAH2, inhibition, at 0.03 µM) [%] | inhibition ([1]; PAFAH2, inhibition, at 0.15 µM) [%] | inhibition (LYPLA2; at 0.75 µM) | inhibition (LYPLA2; inhibition, at 0.03 µM) [%] | inhibition (LYPLA2; inhibition, at 0.15 µM) [%] | inhibition (ABHD11; at 0.75 µM) | inhibition (ABHD11; inhibition, at 0.03 µM) [%] | inhibition (ABHD11; inhibition, at 0.15 µM) [%] | inhibition (ESD; at 0.75 µM) | inhibition (ESD; inhibition, at 0.03 µM) [%] | inhibition (ESD; inhibition, at 0.15 µM) [%] | SMILES
0% (inactive) | 0 | 0 | 0% (inactive) | 0 | 0 | 0% (inactive) | 0 | 0 | 100% | 0 | 100 | 0% (inactive) | 0 | 0 | O=C(N(c1ccccc1)c1ccc(Br)cc1)n1ncc(C(O)(c2ccccc2)c2ccccc2)n1
0% (inactive) | 0 | 0 | 25% (inactive) | 0 | 0 | 0% (inactive) | 0 | 0 | 0% (inactive) | 0 | 0 | 0% (inactive) | 0 | 0 | O=C(N(c1ccccc1)c1ccccc1)n1ncc(C(O)(c2ccccc2)c2ccccc2)n1
0% (inactive) | 0 | 0 | 0% (inactive) | 0 | 0 | 0% (inactive) | 0 | 0 | 50% (inactive) | 0 | 0 | 0% (inactive) | 0 | 0 | CC(C)CC(O)(CC(C)C)c1cnn(C(=O)N(c2ccccc2)c2ccccc2)n1
0% (inactive) | 0 | 0 | 50% (inactive) | 0 | 0 | 0% (inactive) | 0 | 0 | 50% (inactive) | 0 | 0 | 0% (inactive) | 0 | 0 | O=C(N(c1ccccc1)c1ccccc1)n1ncc(-c2cc(F)cc(F)c2)n1
0% (inactive) | 0 | 0 | 0% (inactive) | 0 | 0 | 0% (inactive) | 0 | 0 | 100% | 0 | 100 | 0% (inactive) | 0 | 0 | O=C(N(c1ccccc1)c1cccc(Br)c1)n1ncc(C(O)(c2ccccc2)c2ccccc2)n1

The remaining lines, values behind:

SMILES | inhibition (LYPLA1; at 0.75 µM) | inhibition (LYPLA1; inhibition, at 0.03 µM) [%] | inhibition (LYPLA1; inhibition, at 0.15 µM) [%] | inhibition ([1]; PAFAH2, at 0.75 µM) | inhibition ([1]; PAFAH2, inhibition, at 0.03 µM) [%] | inhibition ([1]; PAFAH2, inhibition, at 0.15 µM) [%] | inhibition (LYPLA2; at 0.75 µM) | inhibition (LYPLA2; inhibition, at 0.03 µM) [%] | inhibition (LYPLA2; inhibition, at 0.15 µM) [%] | inhibition (ABHD11; at 0.75 µM) | inhibition (ABHD11; inhibition, at 0.03 µM) [%] | inhibition (ABHD11; inhibition, at 0.15 µM) [%] | inhibition (ESD; at 0.75 µM) | inhibition (ESD; inhibition, at 0.03 µM) [%] | inhibition (ESD; inhibition, at 0.15 µM) [%]
O=C(N1CCCCC1)n1ncc(C(O)(c2ccccc2)c2ccccc2)n1 | 100% | 50 | 100 | 0% (inactive) | 0 | 0 | 0% (inactive) | 0 | 0 | 100% | 100 | 100 | 25% (inactive) | 0 | 0
COC1CCN(C(=O)n2ncc(C(O)(c3ccccc3)c3ccccc3)n2)CC1 | 100% | 0 | 50 | 0% (inactive) | 0 | 0 | 25% (inactive) | 0 | 0 | 100% | 100 | 100 | 25% (inactive) | 0 | 0
O=C(N(c1ccccc1)c1ccccc1)n1ncc(-c2ccc(Oc3ccccc3)cc2)n1 | 0% (inactive) | 0 | 0 | 75% (inactive) | 0 | 0 | 0% (inactive) | 0 | 0 | 0% (inactive) | 0 | 0 | 0% (inactive) | 0 | 0
COCCCC1CCCCN1C(=O)n1ncc(C(O)(c2ccccc2)c2ccccc2)n1 (stereo not given) | 0% (inactive) | 0 | 0 | 0% (inactive) | 0 | 0 | 0% (inactive) | 0 | 0 | 75% | 0 | 50 | 0% (inactive) | 0 | 0
O=C(N1CCCCC1)n1ncc(C(O)c2ccccc2)n1 (stereo not given) | 100% | 50 | 50 | 0% (inactive) | 0 | 0 | 0% (inactive) | 0 | 0 | 100% | 75 | 100 | 0% (inactive) | 0 | 0
O=C(N(c1ccccc1)c1ccccc1)n1ncc(-c2ccc(-c3ccccc3)cc2)n1 | 0% (inactive) | 0 | 0 | 75% (inactive) | 0 | 0 | 0% (inactive) | 0 | 0 | 0% (inactive) | 0 | 0 | 0% (inactive) | 0 | 0
O=C(N1CCCC(Cc2ccccc2)C1)n1cc(C(O)(c2ccccc2)c2ccccc2)nn1 (stereo not given) | 100% | 0 | 50 | 0% (inactive) | 0 | 0 | 25% (inactive) | 0 | 0 | 100% | 100 | 100 | 0% (inactive) | 0 | 0
CCC1CCCCN1C(=O)n1ncc(C(O)(c2ccccc2)c2ccccc2)n1 (stereo not given) | 0% (inactive) | 0 | 0 | 0% (inactive) | 0 | 0 | 0% (inactive) | 0 | 0 | 100% | 100 | 100 | 0% (inactive) | 0 | 0
COc1ccc2cc(-c3cnn(C(=O)N(c4ccccc4)c4ccccc4)n3)ccc2c1 | 0% (inactive) | 0 | 0 | 50% (inactive) | 0 | 0 | 0% (inactive) | 0 | 0 | 25% (inactive) | 0 | 0 | 0% (inactive) | 0 | 0
COCC1CCCCN1C(=O)n1ncc(C(O)(c2ccccc2)c2ccccc2)n1 (stereo not given) | 0% (inactive) | 0 | 0 | 0% (inactive) | 0 | 0 | 0% (inactive) | 0 | 0 | 100% | 100 | 100 | 0% (inactive) | 0 | 0
O=C(OC(c1ccccc1)c1cnn(C(=O)N2CCCCC2)n1)N1CCCCC1 (stereo not given) | 100% | 100 | 100 | 100% | 0 | 100 | 25% (inactive) | 0 | 0 | 100% | 100 | 100 | 50% (inactive) | 0 | 25
O=C(N1CCc2ccccc2C1)n1ncc(C(O)(c2ccccc2)c2ccccc2)n1 | 50% (inactive) | 0 | 0 | 100% | 0 | 100 | 0% (inactive) | 0 | 0 | 100% | 100 | 100 | 25% (inactive) | 0 | 10
CC1CCN(C(=O)n2ncc(C(O)(c3ccccc3)c3ccccc3)n2)CC1 | 100% | 50 | 100 | 25% (inactive) | 0 | 0 | 50% (inactive) | 0 | 0 | 100% | 100 | 100 | 0% (inactive) | 0 | 0
